In one experiment the test system is β-adrenergic receptors. Nature of the experiment: inhibition of internalization of β-adrenergic receptors (receptor/ligand complex) into the cell. As to conditions: studies carried out by the applicant; result in words. It counts as cell-based.
The subject of a further experiment is β-adrenergic receptor. Nature of the experiment: direct action on the β-adrenergic receptor. As to conditions: studies carried out by the applicant; result in words.

`C[C@@H]1O[C@@H](O[C@H]2[C@H](O[C@H]3CC[C@@]4(C)[C@@H](CC[C@]5(C)[C@@H]4CC=C4[C@@H]6CC(C)(C)CC[C@]6(C(=O)O[C@@H]6O[C@H](CO[C@@H]7O[C@H](CO)[C@@H](O[C@@H]8O[C@@H](C)[C@H](O)[C@@H](O)[C@H]8O)[C@H](O)[C@H]7O)[C@@H](O)[C@H](O)[C@H]6O)CC[C@]45C)[C@]3(C)CO)OC[C@H](O)[C@@H]2O)[C@H](O)[C@H](O)[C@H]1O` [hederacoside C]: the “inhibition of the process of internalizing β-adrenergic receptors” value (from here on “inhibition”) in the experiment with β-adrenergic receptors is recorded as “unable to inhibit the process of internalization”.

With `CC1(C)CC[C@]2(C(=O)O)CC[C@]3(C)C(=CC[C@@H]4[C@@]5(C)CC[C@H](O)[C@@](C)(CO)[C@@H]5CC[C@]43C)[C@@H]2C1` [hederagenin], the “inhibition” value in the experiment with β-adrenergic receptors is recorded as “unable to inhibit the process of internalization”.

Turning to `C[C@@H]1O[C@@H](O[C@H]2[C@H](O[C@H]3CC[C@@]4(C)[C@@H](CC[C@]5(C)[C@@H]4CC=C4[C@@H]6CC(C)(C)CC[C@]6(C(=O)O)CC[C@]45C)[C@]3(C)CO)OC[C@H](O)[C@@H]2O)[C@H](O)[C@H](O)[C@H]1O` [α-hederin], the “inhibition” value in the experiment with β-adrenergic receptors is listed as “inhibits the process of internalizing β-adrenergic receptors in a specific manner”. Moreover, the “direct attack on the β-adrenergic receptor” value in the experiment with β-adrenergic receptor is “does not attack the β-adrenergic receptor directly”.

These data come from US20060057236A1, “Process for producing an extract of ivy leaves” (priority 2003, published 2006).
